“Also recorded” adds a separate entry of the source.
What was measured:
wild-type mice [1] = assay: Exercise-activity assay in wild-type mice; type: in vivo, mouse
[2] = test system: dystrophic or nNOS-null mice; assay: Exercise-activity assay in dystrophic or nNOS-null mice; type: in vivo, mouse
rats = settings: Wang et al. 2001; cited from earlier work
wild-type and mdx mice = settings: Thomas et al. 1998; cited from earlier work
human forearm = settings: local intra-arterial infusion, Seddon et al. 2008; cited from earlier work
wild-type mice [3] = settings: Kinugawa et al. 2005; cited from earlier work
mdx mice = assay: Exercise-activity assay (mild treadmill exercise, then open-field activity chamber) in mdx mice; type: in vivo, mouse; settings: treatment before mild treadmill exercise
mammals = settings: Barbato et al. 2005; cited from earlier work
wild-type mice [4] = settings: Miki et al. 2002; cited from earlier work
[5] = test system: DGC models of muscular dystrophy; assay: Evans Blue Dye uptake in muscle following exercise; type: in vivo, mouse; settings: mice subjected to eccentric contractions
[6] = test system: DGC models of muscular dystrophy; assay: Exercise/activity assay in DGC models of muscular dystrophy; type: in vivo, mouse; settings: administration prior to exercise
nNOS-null mice = assay: Exercise/activity assay in nNOS-null mice; type: in vivo, mouse; settings: administration prior to exercise
PDE5A = PDE5A (Homo sapiens, UniProt O76074); assay: PDE5A inhibition; type: biochemical; settings: at plasma concentration from 300 mg/kg/day
[7] = test system: DGC models of muscular dystrophy; assay: Serum creatine kinase following exercise; type: in vivo, mouse; settings: mice subjected to eccentric contractions, 2 hours post-exercise
Protocol: In the assay, mice are initially placed in an activity cage for thirty minutes, and different activity measurements are measured and monitored during this time frame. The mice are then bled to measure serum creatine kinase (CK) levels and then the mice are injected with Evans Blue Dye. […]. Twenty-four hours later, the mice are then subject to a ten minute exercise protocol on a treadmill with a fifteen degree downhill incline at fifteen meters per minute. Following the exercise protocol, the mice are placed back in the activity cage, and post-exercise activity is measured for thirty minutes. […]
The pharmacological screen utilizes an exercise-activity assay to identify compounds that facilitate NO signaling in muscle having mislocalized nNOS. In the assay, mice are initially placed in an activity cage for thirty minutes to measure pre-exercise activity, and different activity measurements are measured and monitored during this time frame. […] Following the exercise protocol, the mice are placed back in the activity cage, and post-exercise activity is measured for thirty minutes. […]
Serum Creatine Kinase Assays. Blood for quantitative, kinetic determination of serum creatine kinase activity was collected either after the pre-exercise activity analysis or 2 hours post-exercise by mouse tail vein bleeds, using a Sarstedt microvette CB 300, from non-anesthetized restrained mice. […]

Compound: O=[N+]([O-])c1cccc2c(Br)n[nH]c12 [3-bromo-7-nitroindazole]
- post-exercise activity (wild-type mice [1]): caused post-exercise inactivity

Compound: COC(=O)[C@@H](N)CCCNC(=N)N[N+](=O)[O-] [L-NAME]
- post-exercise activity [2]: reduced the activity post-exercise even more
- walking speed (rats): severely reduces walking speed
- femoral blood flow velocity and vascular conductance (wild-type and mdx mice): decreases femoral blood flow velocity and vascular conductance
- mean arterial pressure (wild-type and mdx mice): increases mean arterial pressure
- post-exercise activity (wild-type mice [1]): reduced post-exercise activity to levels similar to those in nNOS-null mice post-exercise

Compound: CNC(=N)NCCC[C@H](N)C(=O)O [L-NMMA]
- resting blood flow (human forearm): reduces resting blood flow

Compound: NC(=NCCC[C@H](N)C(=O)O)N[N+](=O)[O-] [L-NNA]
- exercise-induced hyperemia and exercise capacity (wild-type mice [3]): prevents adequate exercise-induced hyperemia and limits exercise capacity during exhaustive treadmill running

Compound: CC1(C)CC(O)CC(C)(C)N1[O] [Tempol]
- post-exercise activity / exaggerated fatigue response to mild exercise (mdx mice): had no effect on the exaggerated fatigue response

Compound: CC(=O)OCC(=O)[C@@]12N=C(C)O[C@@H]1C[C@H]1[C@@H]3CCC4=CC(=O)C=C[C@]4(C)[C@H]3[C@@H](O)C[C@@]12C [deflazacort]
- post-exercise activity / exaggerated fatigue response to mild exercise (mdx mice): neither treatment resulted in improved post-exercise activity; also recorded: did not ameliorate inactivity post-exercise

Compound: CC(C)Cc1ccc(C(C)C(=O)O)cc1 (stereo not shown) [ibuprofen]
- post-exercise activity / exaggerated fatigue response to mild exercise (mdx mice): neither treatment resulted in improved post-exercise activity

Compound: O=C(NCCO[N+](=O)[O-])c1cccnc1 [nicorandil]
- blood pressure (mammals): significantly reducing blood pressure in mammals

Compound: CC(N/C(=N\C#N)Nc1ccncc1)C(C)(C)C (stereo not shown) [pinacidil]
- mean arterial pressure (wild-type mice [4]): decreases mean arterial pressure

Compound: CCCc1nn(C)c2c(=O)nc(-c3cc(S(=O)(=O)N4CCN(C)CC4)ccc3OCC)[nH]c12 [sildenafil, 5-[2-ethoxy-5-(4-methylpiperazin-1-yl)sulfonylphenyl]-1-methyl-3-propyl-4H-pyrazolo[5,4-e]pyrimidin-7-one]
- Evans Blue Dye uptake in muscle following exercise [5]: prevent an increase in serum CK and Evans Blue Dye uptake in muscle following exercise
- post-exercise activity [6]: very effective at preventing the loss of activity following exercise; also recorded: dramatically increased post-exercise activity
- post-exercise activity (nNOS-null mice): dramatically increased post-exercise activity
- enzyme activity inhibited (PDE5A): more than 50%
- post-exercise activity / exaggerated fatigue response to mild exercise (mdx mice): very effective at preventing the exercise-induced fatigue
- serum CK following exercise [7]: prevent an increase in serum CK

Compound: CN1CC(=O)N2[C@H](c3ccc4c(c3)OCO4)c3[nH]c4ccccc4c3C[C@@H]2C1=O [tadalafil]
- post-exercise activity / exaggerated fatigue response to mild exercise (mdx mice): very effective at preventing the exercise-induced fatigue

Compound: sarafotoxin 6c
- post-exercise activity (wild-type mice [1]): caused post-exercise inactivity

Compound: superoxide dismutase
- post-exercise activity / exaggerated fatigue response to mild exercise (mdx mice): neither method of SOD exposure had an effect on the exaggerated fatigue response

— patent US9943518B2, “Inhibitors of phosphodiesterase type 5A for reducing skeletal muscle fatigue, edema, and damage in a patient having muscle fatigue due to increased age or exercise” (University of Iowa Research Foundation, priority 2008, dated 2018)
